Entries after “also recorded” stand apart in the source; their conditions may differ.
Columns and labels:
[1] = Stability (degradation, colour) of lysine-containing preparation; assay type: physicochemical; details: larger amounts of lysine (more than 30-40% of arginine substituted)
[2] = oral route, tablet; cited from earlier work
[3] = test system: oral and gastric mucosa; details: oral administration (b7), mucosa of the mouth, aqueous suspension (b9); cited from earlier work
[4] = cited from earlier work

Row | Structure (SMILES) | Degradation / brown colour of the pharmaceutical preparation [1] | Kinetics of absorption [2] | Irritability of mucosa [3] | Solubility in water [4]
1 | NCCCC[C@H](N)C(=O)O [lysine] | easily degrades making of a brown colour the pharmaceutical preparation | – | – | –
2 | CC(C)Cc1ccc(C(C)C(=O)O)cc1 (stereo not shown) [Ibuprofen, 2-(4-isobutyl-phenyl)-propionic acid] | – | relatively slow kinetics of absorption | some irritability of gastric mucosa; also recorded: irritant for the mucosa of the mouth | very low solubility in water

— patent US4689218A, “Effervescent composition with analgesic activity” (priority 1985, dated 1987)
